Like-named read-outs stand apart in the source and are kept apart here.
Experiments:
[1] = test system: P. falciparum Dd2 (PfLuc) line expressing firefly luciferase, asexual blood stage; experiment: microbe, parasite or virus in culture; type: cell-based, Plasmodium falciparum; settings: Plasmodium falciparum
P. falciparum Dd2 = experiment: SYBR green I asexual blood stage proliferation assay (96 h); type: cell-based, Plasmodium falciparum; settings: Plasmodium falciparum, DD2, 11-pt dose response, 96hr
[2] = DD2, read-out: CDD P. falciparum Luciferase ABS 11-pt Reconfirmation Dose Response (48hr): IC50 (μM), 11-pt dose response, 48hr
[3] = DD2, 8-pt dose response, 96hr, read-out: CDD P. falciparum Luciferase ABS 8-pt Reconfirmation Dose Response (96hr): IC50
[4] = DD2, 8-pt dose response, 96hr, read-out: CDD P. falciparum Luciferase ABS 8-pt Reconfirmation Dose Response (96hr): Maximum inhibition (%)
[5] = DD2, 11-pt dose response, 48hr, read-out: CDD P. falciparum Luciferase ABS 11-pt Reconfirmation Dose Response (48hr): Maximum inhibition (%)
[6] = DD2, 11-pt dose response, 96hr, read-out: CDD P. falciparum Luciferase ABS 11-pt Reconfirmation Dose Response (96hr): IC50
[7] = DD2, 11-pt dose response, 96hr, read-out: CDD P. falciparum Luciferase ABS 11-pt Reconfirmation Dose Response (96hr): Maximum inhibition (%)
[8] = Sybr Green I, read-out: CDD P. falciparum Sybr Green I ABS 11-pt Reconfirmation Dose Response (96hr): IC50
[9] = Sybr Green I, read-out: CDD P. falciparum Sybr Green I ABS 11-pt Reconfirmation Dose Response (96hr): Maximum inhibition (%)
[10] = 96 h incubation, Dd2 luciferase, read-out: 96 hour Pfluc IC50
[11] = DD2, read-out: P. falciparum Luciferase ABS 11-pt Reconfirmation Dose Response (48hr): IC50, 11-pt dose response, 48hr
[12] = DD2, 8-pt dose response, 96hr, read-out: P. falciparum Luciferase ABS 8-pt Reconfirmation Dose Response (96hr): IC50
[13] = DD2, 8-pt dose response, 96hr, read-out: P. falciparum Luciferase ABS 8-pt Reconfirmation Dose Response (96hr): Maximum inhibition (%)
[14] = DD2, 11-pt dose response, 48hr, read-out: P. falciparum Luciferase ABS 11-pt Reconfirmation Dose Response (48hr): Maximum inhibition (%)
[15] = DD2, 11-pt dose response, 96hr, read-out: P. falciparum Luciferase ABS 11-pt Reconfirmation Dose Response (96hr): IC50
[16] = read-out: P. falciparum Sybr Green I ABS 11-pt Reconfirmation Dose Response (96hr): IC50
[17] = read-out: P. falciparum Sybr Green I ABS 11-pt Reconfirmation Dose Response (96hr): Maximum inhibition (%)
[18] = DD2, 11-pt dose response, 96hr, read-out: P. falciparum Luciferase ABS 11-pt Reconfirmation Dose Response (96hr): Maximum inhibition (%)

Structure (SMILES) | IC50 [1, 2] | IC50 [1, 3] | Emax [1, 4] | Emax [1, 5] | IC50 [1, 6] | Emax [1, 7] | IC50 (P. falciparum Dd2; [8]) | Emax (P. falciparum Dd2; [9]) | IC50 [1, 10] | IC50 [1, 11] | IC50 [1, 12] | Emax [1, 13] | Emax [1, 14] | IC50 [1, 15] | IC50 (P. falciparum Dd2; [16]) | Emax (P. falciparum Dd2; [17]) | Emax [1, 18]
CC(C)N(C)Cc1cnc2n1CCN(C(=O)NC1CCCC1)C2 [DDD01085014] | > 12.5 µM | 0.4 µM | 87.1% | 50.3% | 0.478 µM | 91% | 3090 nM | 52.8% | – | – | – | – | – | – | – | – | –
Fc1cnc(N2CCCC3(CCN(Cc4ccsc4)C3)C2)nc1 (centres unmarked) [DDD01085292] | 2.31 µM | 1 µM | 83.3% | 68.3% | 1.53 µM | 92.4% | > 4160 nM | 70.7% | – | – | – | – | – | – | – | – | –
c1cc(-c2n[nH]cc2-c2ccnc(N3CCCCCC3)n2)ccn1 [DDD01235864] | > 4.16 µM | 0.00697 µM | 93.5% | 62.2% | 0.0308 µM | 93.5% | 5.64 nM | – | 0.03 µM | – | – | – | – | – | – | – | –
CN(CCO)C[C@@H]1CN(C2CCN(c3ccccc3Cl)CC2)C[C@@H]1CO [DDD01243670] | 0.887 µM | 0.4 µM | 94.9% | 96.9% | 0.653 µM | 99.6% | 1340 nM | 86.9% | – | – | – | – | – | – | – | – | –
Oc1cccc2ccc(CN3CCC4(CCNCC4)C3)nc12 [DDD01243747] | 0.642 µM | 0.76 µM | 92% | 97.9% | 0.231 µM | 101% | 10800 nM | 75.2% | – | – | – | – | – | – | – | – | –
Cn1cc(CN2CCCC(CCc3ccccc3C(F)(F)F)C2)cn1 (centres unmarked) [DDD01243772] | – | – | – | – | – | – | – | – | – | 4.26 µM | 1.59 µM | 82.8% | 66.1% | 4.34 µM | 4890 nM | 62% | –
NC1CCCCN(Cc2cc(-c3ccccc3OC(F)(F)F)no2)C1 (centres unmarked) [DDD01244394] | – | – | – | – | – | – | – | – | – | > 4.16 µM | 1.45 µM | 88.9% | 84.8% | > 1.39 µM | > 4160 nM | 69.6% | 97.5%
CC1CCCCN1C(=O)c1coc(COc2cccc3cnccc23)n1 (centres unmarked) [DDD01245028] | 0.751 µM | 0.61 µM | 94% | 97% | 0.469 µM | 99.8% | 568 nM | 97.7% | – | – | – | – | – | – | – | – | –
CCN(Cc1c(F)cccc1Cl)c1cc(C2CCNCC2)nc(C)n1 [DDD01245231] | 0.763 µM | 0.55 µM | 91.3% | 99.4% | 0.504 µM | 99.8% | 2500 nM | 81.1% | – | – | – | – | – | – | – | – | –
CCC[C@H]1CN(S(=O)(=O)c2ccc(-c3c(C)noc3C)s2)C[C@@H]1N [DDD01245572] | > 12.5 µM | 1 µM | 81.3% | 19% | 2.92 µM | 74.1% | 5570 nM | 55.3% | – | – | – | – | – | – | – | – | –
Clc1ccccc1C1(c2ccnc(C3CCCC3)n2)CCNCC1 [DDD01245610] | 4.17 µM | 0.49 µM | 87.3% | 92.8% | 0.755 µM | 98.9% | 3550 nM | 76.4% | 0.76 µM | – | – | – | – | – | – | – | –
NCC1Cc2cc(-c3nccc(N4CCC(O)CC4)n3)cc(Cl)c2O1 (centres unmarked) [DDD01245918] | 2.64 µM | 0.55 µM | 92% | 75.2% | 1.96 µM | 96.7% | 4210 nM | 83.9% | – | – | – | – | – | – | – | – | –
CCCOc1ccc2ccccc2c1CN1CC[C@@]2(O)CCNC[C@H]2C1 [DDD01246029] | 2.85 µM | 1 µM | – | 96.3% | 1.42 µM | 98.8% | 2760 nM | 96.5% | – | – | – | – | – | – | – | – | –
Clc1ccccc1C1(c2ccnc(C3CC3)n2)CCNCC1 [DDD01246037] | 7.25 µM | 0.61 µM | 89.2% | – | 1.02 µM | 93.1% | 4410 nM | 78% | – | – | – | – | – | – | – | – | –
c1ccc(-c2nc3c(c(NCc4n[nH]c5c4CCC5)n2)CCNC3)cc1 [DDD01246472] | 4.12 µM | 0.92 µM | 92.6% | 97.5% | 0.635 µM | 99.5% | 2890 nM | 98.2% | – | – | – | – | – | – | – | – | –
CCN1CC(c2ccccc2)CC2(CCN(Cc3ncc[nH]3)CC2)C1 (centres unmarked) [DDD01246660] | 7.46 µM | 0.79 µM | 90.9% | 59% | 3.35 µM | 85.5% | 3390 nM | 89.2% | – | – | – | – | – | – | – | – | –
Cc1ccc2[nH]c(-c3cn(C4CCNCC4)nn3)nc2c1C [DDD01246711] | 2.21 µM | 0.43 µM | 94.9% | 79.2% | 2.07 µM | 99.2% | 4360 nM | 79.6% | – | – | – | – | – | – | – | – | –
Cc1cccc(CN2CCC(Cc3ccccc3F)CC2)n1 [DDD01246731] | – | – | – | – | – | – | – | – | – | 2.01 µM | 1.12 µM | – | – | 0.529 µM | 5160 nM | 92.8% | 100%
CCN1CCN(C[C@@H]2CN(c3ncc(Cl)cc3F)C[C@@H]2CO)CC1 [DDD01246828] | 1.58 µM | 0.63 µM | 94.8% | 98.3% | 0.961 µM | 99.3% | 1110 nM | 100% | – | – | – | – | – | – | – | – | –
CN[C@@H](C)C(=O)N(Cc1cccc(C)c1)Cc1ccccc1OC [DDD01246872] | 1.7 µM | 0.47 µM | 85.5% | 61.6% | 0.75 µM | 89.6% | 1070 nM | 62.7% | – | – | – | – | – | – | – | – | –
CN(Cc1ccccc1-n1cccn1)C[C@@H]1CCCN2CCCC[C@H]12 [DDD01246904] | – | – | – | – | – | – | – | – | – | > 12.5 µM | 1.88 µM | 85.8% | 53.8% | 3.73 µM | 8420 nM | 72.9% | 73.6%
